Series [1] can be described thus: Cytotoxicity against human MT4 cells assessed as cell viability measured after 5 days by MTS assay. Particulars: time 5 day; call rule not given here. Format: toxicity, cell-based. (Tetrazolium assays rely on reduction of a dye to a coloured formazan, in cell work by metabolically active cells.)
Series [2] relates to Human immunodeficiency virus 1. Briefly: Antiviral activity against HIV1 NL4-3 infected in human MT4 cells assessed as protection against virus induced cytopatheic effect measured after 5 days by MTS assay. The series is classed as functional, organism-based. The settings on record: Human immunodeficiency virus 1, NL4-3, MT4, 120 h.
Series [3] has as its system Human immunodeficiency virus 2. Briefly: Antiviral activity against HIV2 ROD infected in human MT4 cells assessed as protection against virus induced cytopatheic effect measured after 5 days by MTS assay. Format: functional, organism-based. Particulars: Human immunodeficiency virus 2, ROD, MT4, 120 h.
Series [4] in a line: Cytotoxicity against human RD cells assessed as cell viability measured after 5 days by MTS assay. Format: toxicity, cell-based. The settings on record: time 5 day.
Series [5] has as its system Enterovirus A71. Description: Antiviral activity against EV-A71 infected in RD cells assessed as protection against virus induced cytopatheic effect measured after 5 days by MTS assay. Format: functional, organism-based. The settings on record: Enterovirus A, 120 h.
Series [6] is described as follows: Selectivity index, ratio of CC50 for human MT4 cells to EC50 for antiviral activity against HIV-1 NL4.3. Format: toxicity. Particulars: read-out: Ratio CC50/EC50.
Series [7] in a line: Selectivity index, ratio of CC50 for human RD cells to EC50 for antiviral activity against EV-A71. The series is classed as toxicity. The settings on record: read-out: Ratio CC50/EC50.
Series [8] deals with Enterovirus A71. Briefly: Antiviral activity against Enterovirus A71 BrCr infected in RD cells assessed as protection against virus induced cytopatheic effect measured after 5 days by MTS assay. Format: functional, organism-based. The settings on record: Enterovirus A, 120 h.
For the next series, the system named is Coxsackievirus B3. Briefly: Antiviral activity against Coxsackievirus B3 Nancy strain infected in Vero cells assessed as protection against virus induced cytopatheic effect measured after 5 days by MTS assay. The series is classed as functional, organism-based. The settings on record: Enterovirus B, 120 h.
For another series, the system named is enterovirus D68. Briefly: Antiviral activity against Enterovirus D68 CU70 infected in HeLa cells assessed as protection against virus induced cytopatheic effect measured after 5 days by MTS assay. Format: functional, organism-based. Particulars: Enterovirus D, 120 h.
In the next series the test system is rhinovirus A2. Briefly: Antiviral activity against Rhinovirus 2 infected in HeLa cells assessed as protection against virus induced cytopatheic effect measured after 5 days by MTS assay. The series is classed as functional, organism-based, Enterovirus. Particulars: Rhinovirus A, 2, HeLa, 120 h.
The subject of the next series is rhinovirus B14. Briefly: Antiviral activity against Rhinovirus 14 infected in HeLa cells assessed as protection against virus induced cytopatheic effect measured after 5 days by MTS assay. Format: functional, organism-based, Enterovirus. The settings on record: Rhinovirus B, 14, HeLa, 120 h.
Series [9] has as its system Enterovirus A71. Briefly: Antiviral activity against EV-A71 genotype C4 TW/1956/05 infected in RD cells assessed as protection against virus induced cytopatheic effect measured after 5 days by MTS assay. Format: functional, organism-based. The settings on record: Enterovirus A, genotype C4 TW/1956/05, RD, 120 h.
For series [10], the system named is Enterovirus A71. Briefly: Antiviral activity against EV-A71 genotype A BrCr infected in RD cells assessed as protection against virus induced cytopatheic effect measured after 5 days by MTS assay. Particulars: 120 h. The series is classed as functional, organism-based.
Series [11] relates to Enterovirus A71. Briefly: Antiviral activity against EV-A71 genotype B2 11316 infected in RD cells assessed as protection against virus induced cytopatheic effect measured after 5 days by MTS assay. Format: functional, organism-based. The settings on record: Enterovirus A, genotype B2 11316, RD, 120 h.
For series [12], the system named is Enterovirus A71. Briefly: Antiviral activity against EV-A71 genotype B5 TW/70902/08 infected in RD cells assessed as protection against virus induced cytopatheic effect measured after 5 days by MTS assay. The settings on record: Enterovirus A, genotype B5 TW/70902/08, RD, 120 h. Format: functional, organism-based.
The subject of series [13] is Enterovirus A71. Briefly: Antiviral activity against EV-A71 genotype C2 H08300 461#812 infected in RD cells assessed as protection against virus induced cytopatheic effect measured after 5 days by MTS assay. Format: functional, organism-based. Particulars: Enterovirus A, genotype C2 H08300 461#812, RD, 120 h.
Series [14] concerns Enterovirus A71. Briefly: Antiviral activity against Enterovirus A71 BrCr harboring VP1_S184T mutant infected in RD cells assessed as protection against virus induced cytopatheic effect measured after 5 days by MTS assay. Format: functional, organism-based.
Series [15] concerns Enterovirus A71. Description: Antiviral activity against Enterovirus A71 BrCr harboring VP1_P246S mutant infected in RD cells assessed as protection against virus induced cytopatheic effect measured after 5 days by MTS assay. The series is classed as functional, organism-based.
Series [16] concerns Enterovirus A71. Briefly: Antiviral activity against Enterovirus A71 BrCr harboring VP1_S184T_P246S mutant infected in RD cells assessed as protection against virus induced cytopatheic effect measured after 5 days by MTS assay. Format: functional, organism-based.
The nature of series [17]: Ex vivo biodistribution in ip dosed C57BL/6 mouse intestine measured after 2 hrs by fluorescence analysis. The series is classed as ADME, organism-based.
The nature of series [18]: Ex vivo biodistribution in iv dosed C57BL/6 mouse intestine measured after 2 hrs by fluorescence analysis. The series is classed as ADME, organism-based.
Series [19] is described as follows: Ex vivo biodistribution in ip dosed C57BL/6 mouse lung measured after 24 hrs by fluorescence analysis. Format: ADME, organism-based.
The nature of series [20]: Ex vivo biodistribution in ip dosed C57BL/6 mouse lung measured after 72 hrs by fluorescence analysis. The series is classed as ADME, organism-based.
A short description of series [21]: Ex vivo biodistribution in ip dosed C57BL/6 mouse intestine measured after 24 hrs by fluorescence analysis. The series is classed as ADME, organism-based.
The nature of series [22]: Ex vivo biodistribution in ip dosed C57BL/6 mouse intestine measured after 72 hrs by fluorescence analysis. Format: ADME, organism-based.

Turning to `O=C(CCC(CCC(=O)NC(Cc1c(-c2cc(C(=O)O)cc(C(=O)O)c2)[nH]c2ccccc12)C(=O)O)(CCC(=O)NC(Cc1c(-c2cc(C(=O)O)cc(C(=O)O)c2)[nH]c2ccccc12)C(=O)O)NC(=O)CCCCCCNC(=O)Nc1cc(C(=O)O)cc(C(=O)O)c1)NC(Cc1c(-c2cc(C(=O)O)cc(C(=O)O)c2)[nH]c2ccccc12)C(=O)O` (stereo unspecified), the CC50 at 120 h in [1] and in series [4] was over 100000 nM in each case. Moreover, the concentration for a half-maximal effect (EC50) in series [2] was 1090 nM; in [3], 50 nM; in the series on Enterovirus A71 [5] it was 50 nM; with Enterovirus A71 [8], 40 nM; in the series with Coxsackievirus B3, over 50000 nM; in the series on enterovirus D68 it was over 50000 nM. Moreover, the EC50 with rhinovirus A2 is over 50000 nM; with rhinovirus B14, over 50000 nM; in the series with Enterovirus A71 [9], 6 nM; in the series on Enterovirus A71 [10] it was 42 nM; with Enterovirus A71 [11], 75 nM; with Enterovirus A71 [12], 2 nM. Further, the EC50 in the series with Enterovirus A71 [13] turned out to be 91 nM; in the series with Enterovirus A71 [14], 300 nM; in the series on Enterovirus A71 [15] it was 60 nM; in the series on Enterovirus A71 [16] it was 300 nM. For the same molecule, the figures for the selectivity ratio in [6] and in series [7] were over 92 and over 2000, respectively.
For the molecule `CC1(CCCCCCC(=O)NC(CCC(=O)NC(Cc2c(-c3cc(C(=O)O)cc(C(=O)O)c3)[nH]c3ccccc23)C(=O)O)(CCC(=O)NC(Cc2c(-c3cc(C(=O)O)cc(C(=O)O)c3)[nH]c3ccccc23)C(=O)O)CCC(=O)NC(Cc2c(-c3cc(C(=O)O)cc(C(=O)O)c3)[nH]c3ccccc23)C(=O)O)C(/C=C/C=C/C=C2/N(CCCS(=O)(=O)O)c3ccc(S(=O)(=O)O)cc3C2(C)C)=[N+](CCCS(=O)(=O)O)c2ccc(S(=O)(=O)O)cc21.[Na+].[Na+].[Na+].[Na+].[Na+].[Na+].[Na+].[Na+].[Na+].[Na+].[Na+].[Na+]` (stereo unspecified), the Drug uptake entry in series [17], in series [18], in series [19], in [20], in [21] and in series [22] was “Active” each time.

The term CC50 denotes the concentration at which the toxic effect on the cells reaches its halfway point. The term EC50 denotes the concentration giving half of the maximal effect.

Values taken from ChEMBL document CHEMBL5137021, “Organotropic dendrons with high potency as HIV-1, HIV-2 and EV-A71 cell entry inhibitors” (Eur J Med Chem, 2022).
